Values after ≈ are worked out from the molar mass of the structure shown.
Legend:
[1] = biological target: T1, Serine-protein kinase ATM (Homo sapiens, UniProt Q13315); assay: Inhibition of ATM in human A549 cells assessed as reduction in etoposide-stimulated KAP1 phosphorylation by In-Cell-Western assay; assay type: cell-based
[2] = biological target: T1, Serine-protein kinase ATM; assay: Inhibition of ATM (unknown origin) by FRET assay
[3] = Thermodynamic solubility of compound in PBS at pH 7.4; assay type: physicochemical; conditions: read-out: Therm_solubility
[4] = biological target: Serine/threonine-protein kinase ATR (Homo sapiens) (UniProt Q13535); assay: Inhibition of ATR (unknown origin) assessed as residual activity at 1 uM relative to control
[5] = biological target: DNA-dependent protein kinase catalytic subunit (Homo sapiens) (UniProt P78527); assay: Inhibition of DNA-PK (unknown origin) assessed as residual activity at 1 uM relative to control
[6] = biological target: Phosphatidylinositol 4,5-bisphosphate 3-kinase catalytic subunit beta isoform (Homo sapiens) (UniProt P42338); assay: Inhibition of PI3Kbeta (unknown origin) assessed as residual activity at 1 uM relative to control
Chain of Phosphatidylinositol 4,5-bisphosphate 3-kinase catalytic subunit beta isoform (Homo sapiens) (P42338 whole entry, looked up, canonical isoform): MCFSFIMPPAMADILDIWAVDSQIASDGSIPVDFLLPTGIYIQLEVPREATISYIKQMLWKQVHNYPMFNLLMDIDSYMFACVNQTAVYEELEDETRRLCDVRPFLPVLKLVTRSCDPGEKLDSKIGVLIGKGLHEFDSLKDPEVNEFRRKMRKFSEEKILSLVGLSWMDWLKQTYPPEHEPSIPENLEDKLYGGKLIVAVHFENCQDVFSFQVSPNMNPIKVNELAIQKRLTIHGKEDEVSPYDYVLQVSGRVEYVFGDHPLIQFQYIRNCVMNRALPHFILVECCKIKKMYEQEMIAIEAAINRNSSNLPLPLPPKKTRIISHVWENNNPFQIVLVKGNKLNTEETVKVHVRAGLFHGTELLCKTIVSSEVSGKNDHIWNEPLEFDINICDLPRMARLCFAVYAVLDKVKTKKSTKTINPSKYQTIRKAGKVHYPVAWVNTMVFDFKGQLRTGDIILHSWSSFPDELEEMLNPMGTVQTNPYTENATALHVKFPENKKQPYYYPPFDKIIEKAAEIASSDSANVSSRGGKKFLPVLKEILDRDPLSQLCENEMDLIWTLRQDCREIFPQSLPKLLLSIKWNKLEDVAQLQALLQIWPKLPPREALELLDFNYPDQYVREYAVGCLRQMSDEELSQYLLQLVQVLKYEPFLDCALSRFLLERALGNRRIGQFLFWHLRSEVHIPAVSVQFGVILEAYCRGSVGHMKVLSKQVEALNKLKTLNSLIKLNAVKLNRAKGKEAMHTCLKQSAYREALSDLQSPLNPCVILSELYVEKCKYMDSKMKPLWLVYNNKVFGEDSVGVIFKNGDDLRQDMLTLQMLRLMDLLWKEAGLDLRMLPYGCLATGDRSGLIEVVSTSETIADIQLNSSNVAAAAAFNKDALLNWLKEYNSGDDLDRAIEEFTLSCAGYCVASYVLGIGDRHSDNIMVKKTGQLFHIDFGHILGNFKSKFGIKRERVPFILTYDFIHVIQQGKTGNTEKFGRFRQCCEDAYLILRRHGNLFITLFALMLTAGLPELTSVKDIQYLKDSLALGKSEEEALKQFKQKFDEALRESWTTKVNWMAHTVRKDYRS

Homo sapiens = species on record: Homo sapiens; assay: Selectivity ratio for inhibition of ATR (unknown origin) to inhibition of ATM (unknown origin)
[7] = biological target: Serine/threonine-protein kinase mTOR (Homo sapiens) (UniProt P42345); assay: Inhibition of mTOR (unknown origin) assessed as residual activity at 1 uM relative to control
[8] = biological target: Phosphatidylinositol 4,5-bisphosphate 3-kinase catalytic subunit alpha isoform (Homo sapiens) (UniProt P42336); assay: Inhibition of PI3Kalpha (unknown origin) assessed as residual activity at 1 uM relative to control
[9] = biological target: Leucine-rich repeat serine/threonine-protein kinase 2 (Homo sapiens) (UniProt Q5S007); assay: Inhibition of LRRK2 (unknown origin) assessed as residual activity at 1 uM relative to control
[10] = Metabolic stability in mouse liver microsomes assessed as parent compound remaining after 120 mins
[11] = biological target: T2, Phosphatidylinositol 4,5-bisphosphate 3-kinase catalytic subunit delta isoform (Homo sapiens) (UniProt O00329); assay: Inhibition of PI3Kdelta (unknown origin) assessed as residual activity at 1 uM relative to control
T2 sequence (whole entry): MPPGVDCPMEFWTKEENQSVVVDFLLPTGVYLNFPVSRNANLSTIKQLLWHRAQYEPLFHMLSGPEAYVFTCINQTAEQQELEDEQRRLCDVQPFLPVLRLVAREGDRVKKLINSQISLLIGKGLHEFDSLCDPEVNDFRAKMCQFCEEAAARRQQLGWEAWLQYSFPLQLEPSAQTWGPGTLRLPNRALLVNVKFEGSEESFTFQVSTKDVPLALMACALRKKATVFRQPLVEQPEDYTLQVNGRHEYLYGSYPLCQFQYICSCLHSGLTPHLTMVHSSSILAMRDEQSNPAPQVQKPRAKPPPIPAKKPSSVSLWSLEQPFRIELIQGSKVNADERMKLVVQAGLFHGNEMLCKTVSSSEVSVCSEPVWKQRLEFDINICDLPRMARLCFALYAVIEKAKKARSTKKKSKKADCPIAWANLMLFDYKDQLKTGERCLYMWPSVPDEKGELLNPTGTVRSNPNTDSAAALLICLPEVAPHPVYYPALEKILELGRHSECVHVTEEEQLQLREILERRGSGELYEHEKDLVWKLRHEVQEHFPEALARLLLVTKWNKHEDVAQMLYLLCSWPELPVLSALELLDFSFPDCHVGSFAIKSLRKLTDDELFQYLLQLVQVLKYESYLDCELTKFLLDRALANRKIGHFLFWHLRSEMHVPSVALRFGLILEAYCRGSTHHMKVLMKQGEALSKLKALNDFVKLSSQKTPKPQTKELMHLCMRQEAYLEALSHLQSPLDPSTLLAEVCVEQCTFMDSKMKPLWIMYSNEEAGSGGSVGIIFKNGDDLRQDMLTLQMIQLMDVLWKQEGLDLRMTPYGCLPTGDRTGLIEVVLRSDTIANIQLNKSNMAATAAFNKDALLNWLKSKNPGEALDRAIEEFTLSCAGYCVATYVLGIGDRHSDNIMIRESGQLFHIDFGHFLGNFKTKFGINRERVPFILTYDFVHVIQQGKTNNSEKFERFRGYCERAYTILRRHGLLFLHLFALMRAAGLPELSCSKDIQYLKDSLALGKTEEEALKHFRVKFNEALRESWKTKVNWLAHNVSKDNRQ

[12] = biological target: Phosphatidylinositol 4,5-bisphosphate 3-kinase catalytic subunit gamma isoform (Homo sapiens) (UniProt P48736); assay: Inhibition of PI3Kgamma (unknown origin) assessed as residual activity at 1 uM relative to control

T1 sequence (Q13315 whole entry): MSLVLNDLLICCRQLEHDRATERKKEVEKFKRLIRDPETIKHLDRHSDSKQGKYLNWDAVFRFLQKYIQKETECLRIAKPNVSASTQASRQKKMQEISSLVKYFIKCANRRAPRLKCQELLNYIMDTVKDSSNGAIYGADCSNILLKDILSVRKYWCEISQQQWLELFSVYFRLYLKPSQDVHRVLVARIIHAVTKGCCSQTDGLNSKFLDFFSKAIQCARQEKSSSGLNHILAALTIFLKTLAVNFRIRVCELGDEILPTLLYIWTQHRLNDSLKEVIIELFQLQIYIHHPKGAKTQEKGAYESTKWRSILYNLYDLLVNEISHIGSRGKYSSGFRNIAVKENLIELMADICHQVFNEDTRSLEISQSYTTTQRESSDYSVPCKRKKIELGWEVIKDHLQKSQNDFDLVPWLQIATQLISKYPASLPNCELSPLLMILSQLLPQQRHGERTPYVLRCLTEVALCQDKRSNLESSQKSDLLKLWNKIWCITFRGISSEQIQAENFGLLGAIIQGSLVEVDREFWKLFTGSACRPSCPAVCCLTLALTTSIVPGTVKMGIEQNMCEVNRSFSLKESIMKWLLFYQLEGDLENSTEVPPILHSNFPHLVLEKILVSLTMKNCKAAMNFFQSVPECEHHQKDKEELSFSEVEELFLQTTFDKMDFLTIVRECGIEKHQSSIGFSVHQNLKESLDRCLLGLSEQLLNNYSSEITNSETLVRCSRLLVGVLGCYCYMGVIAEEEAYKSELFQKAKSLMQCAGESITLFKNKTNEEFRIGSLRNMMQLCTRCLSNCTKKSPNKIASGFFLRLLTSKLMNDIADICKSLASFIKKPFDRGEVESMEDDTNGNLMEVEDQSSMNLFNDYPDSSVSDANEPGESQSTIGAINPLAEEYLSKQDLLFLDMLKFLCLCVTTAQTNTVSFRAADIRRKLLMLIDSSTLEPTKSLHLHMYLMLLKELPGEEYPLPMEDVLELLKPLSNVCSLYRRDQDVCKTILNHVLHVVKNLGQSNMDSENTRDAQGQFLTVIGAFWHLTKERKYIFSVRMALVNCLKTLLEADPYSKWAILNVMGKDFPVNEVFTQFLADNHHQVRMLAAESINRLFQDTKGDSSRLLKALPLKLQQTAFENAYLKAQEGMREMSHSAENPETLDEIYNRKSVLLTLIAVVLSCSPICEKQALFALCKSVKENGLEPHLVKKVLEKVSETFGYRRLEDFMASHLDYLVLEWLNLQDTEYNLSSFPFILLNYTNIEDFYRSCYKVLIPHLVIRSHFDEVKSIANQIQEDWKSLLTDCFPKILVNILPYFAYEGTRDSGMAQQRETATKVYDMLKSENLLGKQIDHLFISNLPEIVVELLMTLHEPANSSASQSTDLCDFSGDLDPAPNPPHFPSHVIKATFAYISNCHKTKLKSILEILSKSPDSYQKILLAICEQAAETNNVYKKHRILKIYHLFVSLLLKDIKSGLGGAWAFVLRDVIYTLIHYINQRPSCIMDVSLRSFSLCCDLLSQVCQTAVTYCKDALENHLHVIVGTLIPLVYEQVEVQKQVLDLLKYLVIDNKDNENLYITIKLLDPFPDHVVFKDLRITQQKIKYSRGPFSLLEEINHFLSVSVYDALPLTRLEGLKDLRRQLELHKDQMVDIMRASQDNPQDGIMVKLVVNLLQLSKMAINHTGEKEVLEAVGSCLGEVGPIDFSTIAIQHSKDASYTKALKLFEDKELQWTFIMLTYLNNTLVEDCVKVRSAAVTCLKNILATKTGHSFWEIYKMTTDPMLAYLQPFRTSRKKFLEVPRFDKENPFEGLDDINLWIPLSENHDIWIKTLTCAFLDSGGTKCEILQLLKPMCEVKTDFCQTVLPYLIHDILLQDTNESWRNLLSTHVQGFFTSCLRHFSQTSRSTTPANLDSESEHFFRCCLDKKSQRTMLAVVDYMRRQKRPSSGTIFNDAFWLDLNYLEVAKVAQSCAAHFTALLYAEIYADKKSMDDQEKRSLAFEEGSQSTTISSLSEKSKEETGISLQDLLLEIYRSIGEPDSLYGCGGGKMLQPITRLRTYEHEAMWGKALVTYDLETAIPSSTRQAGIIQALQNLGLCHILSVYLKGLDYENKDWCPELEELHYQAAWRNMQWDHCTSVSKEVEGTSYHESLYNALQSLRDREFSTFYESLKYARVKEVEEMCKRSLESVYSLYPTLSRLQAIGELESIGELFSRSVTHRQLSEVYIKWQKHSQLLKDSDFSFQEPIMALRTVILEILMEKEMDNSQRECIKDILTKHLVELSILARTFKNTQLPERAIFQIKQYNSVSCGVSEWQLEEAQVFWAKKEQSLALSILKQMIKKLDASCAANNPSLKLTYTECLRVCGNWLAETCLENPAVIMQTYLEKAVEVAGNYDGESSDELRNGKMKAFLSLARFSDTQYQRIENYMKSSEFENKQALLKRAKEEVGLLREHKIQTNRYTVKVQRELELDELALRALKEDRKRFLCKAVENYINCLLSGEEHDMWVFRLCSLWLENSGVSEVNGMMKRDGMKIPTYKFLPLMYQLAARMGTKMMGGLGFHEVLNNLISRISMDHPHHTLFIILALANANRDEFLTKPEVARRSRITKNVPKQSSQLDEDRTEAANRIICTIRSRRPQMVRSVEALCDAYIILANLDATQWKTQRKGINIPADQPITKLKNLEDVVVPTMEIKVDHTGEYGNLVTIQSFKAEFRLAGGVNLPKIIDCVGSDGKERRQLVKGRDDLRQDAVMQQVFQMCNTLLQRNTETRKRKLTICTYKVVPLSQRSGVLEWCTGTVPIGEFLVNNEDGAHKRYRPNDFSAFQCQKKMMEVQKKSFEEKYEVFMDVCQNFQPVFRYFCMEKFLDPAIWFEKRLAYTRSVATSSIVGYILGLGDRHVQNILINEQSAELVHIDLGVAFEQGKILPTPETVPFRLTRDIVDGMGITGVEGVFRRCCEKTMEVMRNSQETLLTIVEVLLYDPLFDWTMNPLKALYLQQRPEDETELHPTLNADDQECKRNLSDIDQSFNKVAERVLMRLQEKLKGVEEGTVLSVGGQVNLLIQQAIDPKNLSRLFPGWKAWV

For `COCCn1c(=O)n(C)c2cnc3ccc(-c4ccc(NC(=O)N(C)CCN(C)C)cc4)cc3c21`, the IC50 [1] was 1.33 nM and the IC50 [2] was under 1 nM.
`COCCn1c(=O)n(C)c2cnc3ccc(-c4ccc(NC(=O)N5C[C@@H]6C[C@H]5CN6C)cc4)cc3c21` gave an IC50 [2] of 25 nM.
`COCCn1c(=O)n(C)c2cnc3ccc(-c4ccc(NC(=O)NC5CCN(C)C5)cc4)cc3c21` (stereo not given) showed an IC50 [2] of under 1 nM.
With `CN(C)CCCOc1ccc(-c2ccc3ncc4c(c3c2)n(C2CCOCC2)c(=O)n4C)cn1` the solubility thermodynamic [3] was 2970 µM (≈ 1370 µg/mL).
In the case of `COCCn1c(=O)n(C)c2cnc3ccc(-c4ccc(NC(=O)N5CCC(NC(=O)OC(C)(C)C)CC5)cc4)cc3c21`, the IC50 [2] is reported as 2 nM.
In the case of `COCCn1c(=O)n(C)c2cnc3ccc(-c4ccc(NC(=O)NCCN(C)C)c(F)c4)cc3c21`, the IC50 [1] is reported as 0.71 nM, the Activity [4] is reported as 104% and the Activity [5] is reported as 8%. The Activity [6] was 87%, the Selectivity ratio (Homo sapiens) was over 1000 and the Activity [7] was 4%. The IC50 [2] was under 1 nM, the Activity [8] was 28% and the Activity [9] was 92%. For the same compound, the remaining at 2 h [10] was 78%, the Activity [11] was 35% and the Activity [12] was 80%.
With `COCCn1c(=O)n(C)c2cnc3ccc(-c4ccc(NC(=O)NCCN5CCC5)cc4)cc3c21` the IC50 [1] was 0.92 nM and the IC50 [2] was under 1 nM.
`COCCn1c(=O)n(C)c2cnc3ccc(-c4ccc(NC(=O)NCCN(C)C)cc4F)cc3c21` showed an IC50 [1] of 0.65 nM and an IC50 [2] of under 1 nM.
For `COCCn1c(=O)n(C)c2cnc3ccc(-c4ccc(NC(=O)N5CCN(C)CC5)c(F)c4F)cc3c21`, the IC50 [2] was 212 nM.
`COCCn1c(=O)n(C)c2cnc3ccc(-c4ccc(NC(=O)NC5CCCN(C)C5)cc4)cc3c21` (stereo not given) gave an IC50 [2] of under 1 nM.
Work on `COCCn1c(=O)n(C)c2cnc3ccc(-c4ccc(NC(=O)NC(C)CN(C)C)cc4)cc3c21` (stereo not given) yielded an IC50 [2] of under 1 nM.
In the case of `COCCn1c(=O)n(C)c2cnc3ccc(-c4ccc(NC(=O)N5CCN(C)CC5)cc4)cc3c21`, the IC50 [2] is reported as 78 nM.
For `COCCn1c(=O)n(C)c2cnc3ccc(-c4ccc(NC(=O)NCCN(C)C)c(F)c4Cl)cc3c21`, the IC50 [2] was 32 nM.
In the case of `COCCn1c(=O)n(C)c2cnc3ccc(-c4ccc(NC(=O)N5CCN(C)CC5)c(C)c4F)cc3c21`, the IC50 [2] is reported as 1580 nM.
For `COCCn1c(=O)n(C)c2cnc3ccc(-c4ccc(NC(=O)N5CCN(C(C)C)CC5)cc4)cc3c21`, the IC50 [2] was 158 nM.
For `COCCn1c(=O)n(C)c2cnc3ccc(-c4ccc(NC(=O)N5CCN(C)CC5)c(F)c4Cl)cc3c21`, the IC50 [2] was 885 nM.
With `CN(C)CCNC(=O)Nc1ccc(-c2ccc3ncc4c(c3c2)n(C2CCOCC2)c(=O)n4C)cn1` the solubility thermodynamic [3] was 36 µM (≈ 17.6 µg/mL) and the IC50 [2] was under 1 nM.
For `CN(C)CCNC(=O)Nc1ccc(-c2ccc3ncc4c(c3c2)n(C2CCOCC2)c(=O)n4C)cc1`, the solubility thermodynamic [3] was 39 µM (≈ 19.1 µg/mL) and the IC50 [2] was under 1 nM.
`COCCn1c(=O)n(C)c2cnc3ccc(-c4ccc(NC(=O)N5CCN(C)CC5)c(F)c4)cc3c21` gave an IC50 [2] of 394 nM.
Compound `CCN1CCN(C(=O)Nc2ccc(-c3ccc4ncc5c(c4c3)n(CCOC)c(=O)n5C)cc2)CC1` has an IC50 [2] of 159 nM.
Compound `COCCn1c(=O)n(C)c2cnc3ccc(-c4ccc(NC(=O)NC5CCNCC5)cc4)cc3c21` has an IC50 [2] of under 1 nM.
`COCCn1c(=O)n(C)c2cnc3ccc(-c4ccc(NC(=O)NC5CCN(C(=O)OC(C)(C)C)CC5)cc4)cc3c21` showed an IC50 [2] of under 1 nM.
Compound `COCCn1c(=O)n(C)c2cnc3ccc(-c4ccc(NC(=O)NC5CN(C)C5)cc4)cc3c21` has an IC50 [2] of under 1 nM.
With `COCCn1c(=O)n(C)c2cnc3ccc(-c4ccc(NC(=O)N5CCC(N)CC5)cc4)cc3c21` the IC50 [2] was 16 nM.
For `COCCn1c(=O)n(C)c2cnc3ccc(-c4ccc(NC(=O)NCCN(C)C)cc4)cc3c21`, the IC50 [1] was 1.7 nM, the solubility thermodynamic [3] was 1570 µM (≈ 726 µg/mL) and the IC50 [2] was under 1 nM.
For `COCCn1c(=O)n(C)c2cnc3ccc(-c4ccc(NC(=O)N5CCN(C)CC5)cc4F)cc3c21`, the IC50 [2] was 101 nM.
In the case of `COCCn1c(=O)n(C)c2cnc3ccc(-c4ccc(NC(=O)NCCN5CC(F)(F)C5)cc4)cc3c21`, the IC50 [1] is reported as 3.31 nM and the IC50 [2] is reported as under 1 nM.
With `COCCn1c(=O)n(C)c2cnc3ccc(-c4ccc(NC(=O)N5CCC(N(C)C)CC5)cc4)cc3c21` the IC50 [2] was 945 nM.
`COCCn1c(=O)n(C)c2cnc3ccc(-c4ccc(NC(=O)NCCN(C)C)c(C)c4F)cc3c21` showed an IC50 [2] of 37 nM.
Compound `COCCn1c(=O)n(C)c2cnc3ccc(-c4ccc(NC(=O)NCCN5CC(F)C5)cc4)cc3c21` has an IC50 [1] of 0.32 nM, an Activity [4] of 109% and an Activity [5] of -4%. It also gave an Activity [6] of 42%, a Selectivity ratio (Homo sapiens) of over 1000 and an Activity [7] of -1%. For the same compound, the IC50 [2] was under 1 nM, the Activity [8] was -11% and the Activity [9] was 87%. The remaining at 2 h [10] was 50%, the Activity [11] was 23% and the Activity [12] was 34%.

— ChEMBL document CHEMBL5154812, “Development of novel urea-based ATM kinase inhibitors with subnanomolar cellular potency and high kinome selectivity” (Eur J Med Chem, 2022)
